The results in this text go back to patent publication US10800806B2, “Sterol derivatives and use thereof for treating diseases involving transformed astrocyte cells or for treating malignant haemopathies” (BETA INNOV, priority 2012, dated 2020).

In experiment [1] the test system is C6 cells. The experiment can be described thus: Anti-GBM activity in vitro on cultures of C6 cells (cell counting, protein assay, MTT test). It counts as cell-based, rat. Particulars: 15 μm, ethanol 3%. Here is the method:
Plastic flat-bottomed 96-well culture plates (NUNC, USA) treated for cell culture (Sigma-Aldrich, ref. 114754) are used; 1500 cells are seeded per well in 200 μl of culture medium. At the time of treatment, 100 μl of pure culture medium, 100 μl of culture medium containing ethanol, or liposomes, or 100 μl of culture medium containing the active ingredients are added per well; the final volume of the culture medium, after treatment, is therefore 300 μl for all the wells.
The cultures are incubated in a Sanyo incubator (Japan, model MCO-19AlC-UV) at 37° C. and in an atmosphere with 5% CO2 and saturated in humidity. The cells are observed with an inverted microscope (Nikon Eclipse TS100, Japan) and the photographs are taken with a camera (DIGITAL camera with c-mount; LABOVER, France). The culture hood is a microbiological safety hood MSC (thermo SCIENTIFIC, model HERA SAFE KS12, France).
The type C6 cell line was obtained by Benda et al. (16) from rat brain tumours, induced by N-methylnitrosourea. This cell type is used as “in vitro” and “in vivo” model for evaluating anti-GBM potential. The lines originate from the former Strasbourg Neurochemistry Centre (U44 INSERM and UPR 416 CNRS).
The culture medium is made up of 70% Minimum Essential Medium (MEM; (Fischer Scientifique, ref. 61100) and 30% Hanks solution (SIGMA, ref. H 9269). The following are added to the culture medium: foetal calf serum (FCS; Fischer Scientifique, ref. 10108165) at a final concentration of 5% (v/v), an antibiotic solution of ciprofloxacin hydrochloride 5 μg/mL (EUROMEDEX, ref. UC5074) and a solution of Fungizone 2.5 μg/mL (INVITROGEN, ref. 15290-026). The doubling time of this cell type is 17 h. • GBM lines of human origin
The active ingredients are either dissolved in absolute ethanol (AnalaR, NORMAPUR, VWR, France) or in the form of a liposomal solution, such as 10 μl of the stock solutions diluted in 990 μl and then added to the culture wells (200 μl of culture medium) giving concentrations of 30.0, 15.0, 7.5 and 3.3 μM (final volume of culture medium per well BI-GBM: 300 μl).
When the active ingredients are in ethanolic solution, the culture medium contains […] ethanol (v/v).
A method of cell counting on photographs was used.
For example, in the case of the cultures in 96-well plates and as a function of the magnification of the microscope used (objectives×10 or ×20, oculars×10), a photograph taken represents a field of view with a diameter equal to 1/5 of the diameter of a well. Therefore the total number of cells in a well is equal to […] the number of cells per photograph. This technique was compared with a standard technique (trypsinization of the cell layer, centrifugation of the cells, suspension of the cells in physiological saline solution and counting with a THOMA cell) in the case of the C6 cells. The results obtained are identical for both methods.
The culture medium is withdrawn from each well and 50 μl of Laemmli buffer (0.1 ml of Tris, 0.8 ml of glycerol, 1.6 mL of 10% SDS, 8 ml q.s.f ultrapure water) is added per well.
In control wells, 10 μl of a solution of bovine serum albumin range (crystallized BSA, Sigma) is added; the range is from 0 to 20 μg per well. The wells are then supplemented with 40 μl of Laemmli buffer. Finally, 200 μl of solution of BCA reagent is added (Pierce, USA; BCA Protein Assay Kit; ThemoScientific, France).
The culture plates are incubated for 30 min at 37° C. The optical density for each well is read and quantified by a plate reader (BioRad, USA, iMark Microplate reader 12222) at 570 nm.
This test makes it possible to detect the cellular respiration, especially the mitochondrial respiration. The stock solution of tetrazolium salt MTT (3-(4,5-dimethylthiazol-2-yl)-2,5-diphenyl tetrazolium bromide, Sigma-Aldrich, USA, ref. M5655) is prepared with 10 mg of MIT/ml of PBS buffer (phosphate-buffered saline, SIGMA, ref. D 1408). […]
On the technique in general: Tetrazolium assays rely on reduction of a dye to a coloured formazan, in cell work by metabolically active cells.

Experiment [2] has as its system colon cancer cells (ECACC-HT29/219). The experiment can be described thus: Activity in vitro on colon cancer cells. Format: cell-based, human. The settings on record: 15 μM, improved liposomal form. The text has this:
They were obtained from the ECACC collection (Ref. ECACC-85061109). The culture conditions are based on the recommendations in the Sigma-Aldrich information leaflet. • Neuroblastoma (line SH-SY5Y)
(§1) The cancer cells used are from liver (ref. ATCC-HB-8065), prostate (ref. ATCC-HTB-81), breast (ref. ATCC-HTB-19) cancer cells, and from colon cancer cells (ECACC-HT29/219) of human origin, mentioned above.

For experiment [3], the system named is Neuroblastoma (line SH-SY5Y, ATCC-CRL-2266). As to the kind of experiment: Activity in vitro on human neuroblastomas. Particulars: 22 μM once, concentrated liposomal form, 7 days of treatment. It counts as cell-based. The protocol:
They were obtained from the ATCC collection (Ref. ATCC-CRL-2266). The culture conditions are based on the recommendations in the ATCC information leaflet. • Chronic Myelomonocytic Leukaemia (CMML)
The neuroblastomas were treated with empty liposomes (controls) or with liposomes containing molecule 1.b or 2.b, 24 h after starting the culture. The cells are treated once with 22 μM of molecule 1.b or 22 μM of molecule 2.b. The liposomal form is concentrated.
For the control cells, the upper left hand photograph marked with the letter A was taken after 7 days of treatment; the lower left hand photograph marked with the letter B was taken after 28 days of treatment.
For the cells treated with the concentrated liposomal molecule 1.b, the photograph marked with the letter C (in the middle, at the top) was taken after 7 days of treatment and the photograph marked with the letter D (in the middle, at the bottom) after 28 days of treatment. For the cells treated with the concentrated liposomal molecule 2.b, the upper right hand photograph marked with the letter E was taken after 7 days of treatment.

For experiment [4], the system named is prostate cancer cells (ATCC-HTB-81). The experiment can be described thus: Activity in vitro on prostate cancer cells. The settings on record: 30 μM, ethanolic form. It counts as cell-based, human. The protocol: They were obtained from ATCC (ref. ATCC-HTB-81). The culture medium is the same as that used for the liver cancer lines. The doubling time is 60 h. • Breast cancer cells
as §1

In the case of `CC(C)CCCC(C)C1CCC2C3C(OC(=O)OC(C)(C)C)C=C4CC(OC(=O)C5COC(C)(C)O5)CCC4(C)C3CCC12C` (stereo not shown) [Molecule 2.a, 7-((tert-butoxycarbonyl)oxy)-10,13-dimethyl-17-(6-methylheptan-2-yl)-2,3,4,7,8,9,10,11,12,13,14,15,16,17-tetradecahydro-1H-cyclopenta[a]phenanthren-3-yl 2,2-dimethyl-1,3-dioxolane-4-carboxylate], the Live residual cells in experiment [1] was found to be 100%.

With `CC(=O)OC1C=C2CC(OC(=O)C3COC(C)(C)O3)CCC2(C)C2CCC3(C)C(C(C)CCCC(C)C)CCC3C12` (stereo not shown) [Molecule 2.b, 7-acetoxy-10,13-dimethyl-17-(6-methylheptan-2-yl)-2,3,4,7,8,9,10,11,12,13,14,15,16,17-tetradecahydro-1H-cyclopenta[a]phenanthren-3-yl 2,2-dimethyl-1,3-dioxolane-4-carboxylate], the “toxicity to colon cancer cells” value in experiment [2] is reported as “not toxic”. The “toxicity to neuroblastoma cells compared to the control cells” value in experiment [3] is “no viable cell is observed”. Besides, in experiment [4], the “effect on cellular division and respiration” value is recorded as “no effect”.
